Patent US20130028987A1, “Method of treating psoriasis” (priority 2011, published 2013)

Test system: phosphorylase kinase
Experiment: inhibition of phosphorylase kinase activity
Type: biochemical
Settings: findings of the instant inventor; no experiment described

SMILES: COc1cc(/C=C/C(=O)CC(=O)/C=C/c2ccc(O)c(OC)c2)ccc1O [Curcumin]
- inhibition of phosphorylase kinase: selective and non-competitive inhibitor of phosphorylase kinase
